Measured values from patent publication US11472774B2, “Anti-cancer compounds” (The University of Sydney, priority 2018, dated 2022).

Target: T1, porcine brain tubulin (Sus scrofa, UniProt P02550+P02554)
T1 construct: purchased Cytoskeleton; host or cells: porcine brain tissue
Experiment: Fluorescence-based tubulin polymerization assay
Format: biochemical
Conditions: compared to control (DMSO); 37° C.; FIG. 1 and FIG. 2
Procedure: Fluorescence-based tubulin polymerization assay was conducted in a final volume of 55 μL using the Tubulin Polymerization Assay kit (Cytoskeleton, Colo., USA) as per manufacturer's instructions. Briefly, porcine brain tubulin was incubated with test compounds at 37° C. and fluorescence was measured using with Tecan M200 PRO+ microplate reader (Tecan, Switzerland) at 355 nm excitation and 460 nm emission.

T1 sequence (P02550 whole entry): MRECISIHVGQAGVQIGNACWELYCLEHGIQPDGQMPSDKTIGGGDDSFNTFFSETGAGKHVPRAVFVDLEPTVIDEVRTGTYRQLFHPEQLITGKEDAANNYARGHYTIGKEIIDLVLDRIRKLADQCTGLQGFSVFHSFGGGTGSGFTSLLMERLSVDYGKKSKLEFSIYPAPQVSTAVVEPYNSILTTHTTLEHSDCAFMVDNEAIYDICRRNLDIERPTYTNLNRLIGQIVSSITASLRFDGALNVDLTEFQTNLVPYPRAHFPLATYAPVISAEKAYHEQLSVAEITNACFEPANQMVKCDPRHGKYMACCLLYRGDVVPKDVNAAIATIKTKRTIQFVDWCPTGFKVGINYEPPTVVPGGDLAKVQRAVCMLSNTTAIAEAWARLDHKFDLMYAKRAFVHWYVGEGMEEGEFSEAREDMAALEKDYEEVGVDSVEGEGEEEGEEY
T1 sequence (P02554 whole entry): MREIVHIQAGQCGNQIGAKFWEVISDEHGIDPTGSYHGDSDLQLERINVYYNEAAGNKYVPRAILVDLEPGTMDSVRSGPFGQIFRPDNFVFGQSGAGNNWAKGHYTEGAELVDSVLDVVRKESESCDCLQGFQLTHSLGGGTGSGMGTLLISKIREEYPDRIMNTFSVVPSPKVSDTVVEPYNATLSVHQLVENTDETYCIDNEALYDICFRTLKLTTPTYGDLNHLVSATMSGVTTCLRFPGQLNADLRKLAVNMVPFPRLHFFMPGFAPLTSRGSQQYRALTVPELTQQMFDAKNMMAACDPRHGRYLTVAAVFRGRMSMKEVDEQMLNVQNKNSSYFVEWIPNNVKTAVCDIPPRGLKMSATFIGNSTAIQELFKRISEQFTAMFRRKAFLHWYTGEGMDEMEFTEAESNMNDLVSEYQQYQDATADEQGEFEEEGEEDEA

| effect on tubulin polymerization | SMILES |
| --- | --- |
| inhibited tubulin polymerization | CC[C@]1(O)C[C@@H]2CN(CCc3c([nH]c4ccccc34)[C@@](C(=O)OC)(c3cc4c(cc3OC)N(C)[C@H]3[C@@](O)(C(=O)OC)[C@H](OC(C)=O)[C@]5(CC)C=CCN6CC[C@]43[C@@H]65)C2)C1 [vinblastine] |
| inhibited tubulin polymerization | O=C(NCCCc1ccc(-c2ccccc2F)cc1)c1cccnc1 [WJA88, N-(3-(2′-Fluoro-[1,1′-Biphenyl]-4-yl)Propyl)Nicotinamide] |
| enhanced tubulin polymerization | CC(=O)O[C@H]1C(=O)[C@@]2(C)[C@H]([C@H](OC(=O)c3ccccc3)[C@]3(O)C[C@H](OC(=O)[C@H](O)[C@@H](NC(=O)c4ccccc4)c4ccccc4)C(C)=C1C3(C)C)[C@]1(OC(C)=O)CO[C@@H]1C[C@@H]2O [paclitaxel] |
| inhibited tubulin polymerization | O=C(CCCc1ccc(-c2ccccc2F)cc1)Nc1cccnc1 [WJA69b, 4-(2′-fluoro-[1,1′-biphenyl]-4-yl)-N-(pyridin-3-yl)butanamide] |
